Data on 26 compounds can be found in patent US7135466B2 (Kirin Beer Kabushiki Kaisha, priority 1999, dated 2006).

The assay deals with T1, c-kit (Homo sapiens, UniProt P10721).
T1 construct: MO7e (human megakaryocytic leukemia cell line) which had been arrested for 20 hr; endogenous in cells; host or cells: MO7e human megakaryocytic leukemia cell line
The assay is described as follows: Inhibitory activity against c-kit autophosphorylation (MO7e cells, h-SCF). The assay is classed as cell-based. Conditions: for IC50: MO7e cells, h-SCF stimulation, read-out: c-kit IC50; for inhibition at 1 µM: Mo7e, figure in parentheses in −( ), at 1000 nM. The gist of the method:
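Ligand-induced c-kit tyrosine phosphorylation is measured in MO7e cells that were quiesced 20 hr and preincubated with compound for 1 hr prior to a 5 min pulse of 50 ng/ml human SCF. Phospho-c-kit is detected by anti-phosphotyrosine capture ELISA, A450.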

T1 sequence (P10721 26-976): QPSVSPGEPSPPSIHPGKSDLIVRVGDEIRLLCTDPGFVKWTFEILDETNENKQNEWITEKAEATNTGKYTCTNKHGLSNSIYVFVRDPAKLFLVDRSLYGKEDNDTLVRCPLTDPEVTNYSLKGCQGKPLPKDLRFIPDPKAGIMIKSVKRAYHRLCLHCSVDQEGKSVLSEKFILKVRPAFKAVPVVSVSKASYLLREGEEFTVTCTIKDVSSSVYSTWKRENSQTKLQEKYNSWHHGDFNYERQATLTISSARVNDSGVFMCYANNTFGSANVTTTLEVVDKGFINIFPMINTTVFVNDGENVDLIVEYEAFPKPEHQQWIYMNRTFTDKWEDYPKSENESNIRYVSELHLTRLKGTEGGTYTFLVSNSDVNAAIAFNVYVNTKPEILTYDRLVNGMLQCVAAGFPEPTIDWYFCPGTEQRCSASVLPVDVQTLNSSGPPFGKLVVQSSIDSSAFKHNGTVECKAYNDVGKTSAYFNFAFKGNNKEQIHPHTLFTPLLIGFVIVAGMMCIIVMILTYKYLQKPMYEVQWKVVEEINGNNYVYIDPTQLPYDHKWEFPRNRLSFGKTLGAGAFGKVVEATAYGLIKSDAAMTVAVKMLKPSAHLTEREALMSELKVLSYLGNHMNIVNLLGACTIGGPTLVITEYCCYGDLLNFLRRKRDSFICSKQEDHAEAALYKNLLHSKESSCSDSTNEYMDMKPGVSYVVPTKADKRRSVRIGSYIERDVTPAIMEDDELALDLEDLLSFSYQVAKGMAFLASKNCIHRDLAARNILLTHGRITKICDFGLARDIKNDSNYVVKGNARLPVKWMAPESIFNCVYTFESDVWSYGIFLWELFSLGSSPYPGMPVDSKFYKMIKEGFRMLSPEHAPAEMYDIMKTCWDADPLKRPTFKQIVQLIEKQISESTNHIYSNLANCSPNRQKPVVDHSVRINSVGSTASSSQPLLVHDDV

On to `COc1ccc(C(=O)NC(=S)Nc2ccc(Oc3ccnc4cc(OC)c(OC)cc34)cc2)cc1OC` [Example 1010, N-(3,4-Dimethoxybenzoyl)-N′-{4-[(6,7-dimethoxy-4-quinolyl)oxy]phenyl}thiourea], for which the IC50 turned out to be 78 nM.
With `COc1cc2nccc(Oc3ccc(NC(=S)NC(=O)c4ccc(Cl)cc4Cl)c(F)c3)c2cc1OC` [Example 1011, N-(2,4-Dichlorobenzoyl)-N′-{4-[(6,7-dimethoxy-4-quinolyl)oxy]-2-fluorophenyl}thiourea], the inhibition at 1 µM was 20%.
On the same count and under the same terms, under `COc1cc2nccc(Oc3ccc(NC(=S)NC(=O)c4c(Cl)cccc4Cl)c(F)c3)c2cc1OC` [Example 1012, N-(2,6-Dichlorobenzoyl)-N′-{4-[(6,7-dimethoxy-4-quinolyl)oxy]-2-fluorophenyl}thiourea] stands 24%; under `COc1cc2nccc(Oc3ccc(NC(=S)NC(=O)c4ccc(F)cc4F)cc3F)c2cc1OC` [Example 1013, N-(2,4-Difluorobenzoyl)-N′-{4-[(6,7-dimethoxy-4-quinolyl)oxy]-3-fluorophenyl}thiourea], 22%.
Consider `COc1cc2nccc(Oc3ccc(NC(=S)NC(=O)c4ccc(Cl)cc4Cl)cc3F)c2cc1OC` [Example 1014, N-(2,4-Dichlorobenzoyl)-N′-{4-[(6,7-dimethoxy-4-quinolyl)oxy]-3-fluorophenyl}thiourea], for which the inhibition at 1 µM amounted to 30%.
Turning to `COc1cc2nccc(Oc3ccc(NC(=S)NC(=O)c4cc(Cl)cc(Cl)c4)cc3F)c2cc1OC` [Example 1015, N-(3,5-Dichlorobenzoyl)-N′-{4-[(6,7-dimethoxy-4-quinolyl)oxy]-3-fluorophenyl}thiourea], the IC50 was found to be 195 nM.
As for `COc1cc2nccc(Oc3ccc(NC(=S)NC(=O)c4c(F)cccc4F)cc3Cl)c2cc1OC` [Example 1020, N-{3-Chloro-4-[(6,7-dimethoxy-4-quinolyl)oxy]phenyl}-N′-(2,6-difluorobenzoyl)thiourea], the inhibition at 1 µM is 11%.
For `COc1cc2ncnc(Oc3ccc(NC(=S)NC(=O)c4ccc(F)cc4F)cc3)c2cc1OC` [Example 1021, N-(2,4-Difluorobenzoyl)-N′-{4-[(6,7-dimethoxy-4-quinazolinyl)oxy]phenyl}thiourea], the inhibition at 1 µM came to 38%.
`COc1cc2nccc(Oc3ccc(NC(=S)NC(=O)CCc4ccccc4)c(F)c3)c2cc1OC` [Example 1026, N-{4-[(6,7-Dimethoxy-4-quinolyl)oxy]-2-fluorophenyl}-N′-(3-phenylpropanoyl)thiourea]: the IC50 came to 652 nM.
For `COc1cc2nccc(Oc3ccc(NC(=S)NC(=O)CCC4CCCC4)c(F)c3)c2cc1OC` [Example 1027, N-(3-Cyclopentylpropanoyl)-N′-{4-[(6,7-dimethoxy-4-quinolyl)oxy]-2-fluorophenyl}thiourea], the IC50 was found to be 161 nM.
Turning to `COc1cc2nccc(Oc3ccc(NC(=S)NC(=O)c4ccco4)cc3)c2cc1OC` [Example 1033, N-{4-[(6,7-Dimethoxy-4-quinolyl)oxy]phenyl}-N′-(2-furylcarbonyl)thiourea], the IC50 came to 177 nM.
As to `COc1cc2nccc(Oc3ccc(NC(=S)NC(=O)c4ccsc4)cc3)c2cc1OC` [Example 1034, N-{4-[(6,7-Dimethoxy-4-quinolyl)oxy]phenyl}-N′-(3-thienylcarbonyl)thiourea], the IC50 was determined as 378 nM.
Regarding `COc1cc2nccc(Oc3ccc(NC(=S)NC(=O)c4ccco4)c(F)c3)c2cc1OC` [Example 1035, N-{4-[(6,7-Dimethoxy-4-quinolyl)oxy]-2-fluorophenyl}-N′-(2-furylcarbonyl)thiourea], the inhibition at 1 µM was found to be 17%.
`COc1cc2nccc(Oc3ccc(NC(=S)NC(=O)c4ccsc4)c(F)c3)c2cc1OC` [Example 1036, N-{4-[(6,7-Dimethoxy-4-quinolyl)oxy]-2-fluorophenyl}-N′-(3-thienylcarbonyl)thiourea]: the inhibition at 1 µM came to 29%.
`COc1cc2nccc(Oc3ccc(NC(=S)NC(=O)c4cc(C)oc4C)c(F)c3)c2cc1OC` [Example 1037, N-{4-[(6,7-Dimethoxy-4-quinolyl)oxy]-2-fluorophenyl}-N′-[(2,5-dimethyl-3-furyl)carbonyl]-thiourea]: the IC50 was 558 nM.
In the case of `COc1cc2nccc(Oc3ccc(NC(=S)NC(=O)c4sccc4C)c(F)c3)c2cc1OC` [Example 1038, N-{4-[(6,7-Dimethoxy-4-quinolyl)oxy]-2-fluorophenyl}-N′-[(3-methyl-2-thienyl)carbonyl]thiourea], the IC50 amounted to 597 nM.
On to `COc1cc2nccc(Oc3ccc(NC(=S)NC(=O)c4cc(C)oc4C)cc3F)c2cc1OC` [Example 1039, N-{4-[(6,7-Dimethoxy-4-quinolyl)oxy]-3-fluorophenyl}-N′-[(2,5-dimethyl-3-furyl)carbonyl]thiourea], for which the concentration for half-maximal inhibition (IC50) amounted to 556 nM.
`COc1cc2nccc(Oc3ccc(NC(=S)NC(=O)N4c5ccccc5CCc5ccccc54)cc3)c2cc1OC` [Example 1047, N-[10,11-Dihydro-5H-dibenzo(b,f)azepin-5-ylcarbonyl]-N′-{4-[(6,7-dimethoxy-4-quinolyl)oxy]phenyl}thiourea]: the inhibition at 1 µM was determined as 7%.
Regarding `COc1cc2nccc(Oc3ccc(NC(=S)NC(=O)N(C)c4ccccc4)cc3Cl)c2cc1OC` [Example 1053, N-{3-Chloro-4-[(6,7-dimethoxy-4-quinolyl)oxy]phenyl}-{[(methylanilino)carbonyl]amino}methanethioamide], the IC50 came to 178 nM.
The same measure, in the same setting: with `COc1cc2nccc(Oc3ccc(NC(=S)NC(=O)C4CC4)cc3F)c2cc1OC` [Example 1056, N-Cyclopropylcarbonyl-N′-{4-[(6,7-dimethoxy-4-quinolyl)oxy]-3-fluorophenyl}thiourea] the figure was 932 nM; with `COc1cc2nccc(Oc3ccc(NC(=S)NC(=O)C4CC4c4ccccc4)cc3F)c2cc1OC` (centres unmarked) [Example 1057, N-{4-[(6,7-Dimethoxy-4-quinolyl)oxy]-3-fluorophenyl}-N′-[(2-phenylcyclopropyl)carbonyl]thiourea], 447 nM; with `COc1cc2nccc(Oc3ccc(NC(=S)NC(=O)C4CC4c4ccccc4)cc3Cl)c2cc1OC` (centres unmarked) [Example 1059, N-{3-Chloro-4-[(6,7-dimethoxy-4-quinolyl)oxy]phenyl}-N′-[(2-phenylcyclopropyl)carbonyl]thiourea], 550 nM.
Still for that read-out and setting: under `COc1cc2nccc(Oc3ccc(NC(=S)NC(=O)C4CCCC4)cc3)c2cc1OC` [Example 1061, N-Cyclopentylcarbonyl-N′-{4-[(6,7-dimethoxy-4-quinolyl)oxy]phenyl}thiourea] stands 136 nM; under `COc1cc2nccc(Oc3ccc(NC(=S)NC(=O)C4CCCCC4)cc3)c2cc1OC` [Example 1062, N-Cyclohexylcarbonyl-N′-{4-[(6,7-dimethoxy-4-quinolyl)oxy]phenyl}thiourea], 233 nM.
As for `COc1cc2nccc(Oc3ccc(NC(=S)NC(=O)C4CCCC4)c(F)c3)c2cc1OC` [Example 1063, N-Cyclopentylcarbonyl-N′-{4-[(6,7-dimethoxy-4-quinolyl)oxy]-2-fluorophenyl}thiourea], the IC50 was 491 nM.
Turning to `COc1cc2nccc(Oc3ccc(NC(=S)NC(=O)C4CCCCC4)c(F)c3)c2cc1OC` [Example 1064, N-Cyclohexylcarbonyl-N′-{4-[(6,7-dimethoxy-4-quinolyl)oxy]-2-fluorophenyl}thiourea], the IC50 amounted to 279 nM.
